One assay has as its target T1, FXR (Homo sapiens (Human), UniProt Q96RI1). In words: FXR EC50 (FXR agonist potency reported with each Example). It counts as cell-based.
Details: not given
T1 sequence (Q96RI1 262-486): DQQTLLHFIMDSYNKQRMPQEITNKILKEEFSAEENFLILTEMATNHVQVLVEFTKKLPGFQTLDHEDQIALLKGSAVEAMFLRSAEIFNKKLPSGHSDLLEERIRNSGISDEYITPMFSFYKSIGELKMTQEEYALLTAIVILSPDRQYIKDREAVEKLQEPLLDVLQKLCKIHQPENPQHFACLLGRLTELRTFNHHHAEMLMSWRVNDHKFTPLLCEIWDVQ
The molecule `Cn1nc(C(C)(C)C)cc1-c1cccc(N(CC23CCC(c4noc(C(C)(C)C)n4)(CC2)CC3)C(=O)C23CC(F)(C2)C3)c1` [Example 213, N-((4-(5-(tert-butyl)-1,2,4-oxadiazol-3-yl)bicyclo[2.2.2]octan-1-yl)methyl)-N-(3-(3-(tert-butyl)-1-methyl-1H-pyrazol-5-yl)phenyl)-3-fluorobicyclo[1.1.1]pentane-1-carboxamide] gave an EC50 of 0.198 µM.

Consider `O=C(N(CC12CCC(c3nc(C4CC4)no3)(CC1)CC2)c1cccc(-c2cnc(C3CC3)o2)c1)C12CC(F)(C1)C2` [Example 23, N-((4-(3-cyclopropyl-1,2,4-oxadiazol-5-yl)bicyclo[2.2.2]octan-1-yl)methyl)-N-(3-(2-cyclopropyloxazol-5-yl)phenyl)-3-fluorobicyclo[1.1.1]pentane-1-carboxamide], for which the response was half-maximal at 0.072 µM (EC50).

Take `CC(C)(O)c1coc(-c2cccc(N(CC34CCC(c5nc(C6CC6)no5)(CC3)CC4)C(=O)C34CC(F)(C3)C4)c2)n1` [Example 15, N-((4-(3-cyclopropyl-1,2,4-oxadiazol-5-yl)bicyclo[2.2.2]octan-1-yl)methyl)-3-fluoro-N-(3-(4-(2-hydroxypropan-2-yl)oxazol-2-yl)phenyl)bicyclo[1.1.1]pentane-1-carboxamide]: the EC50 came out at 0.088 µM. This EC50 and that of the molecule before are within 1.5-fold of each other.

`CC1(c2nc(C34CCC(CN(C(=O)C56CC(F)(C5)C6)c5cccc(-c6nnc(C7CC7)o6)c5)(CC3)CC4)no2)CC1` [Example 154, N-(3-(5-cyclopropyl-1,3,4-oxadiazol-2-yl)phenyl)-3-fluoro-N-((4-(5-(1-methylcyclopropyl)-1,2,4-oxadiazol-3-yl)bicyclo[2.2.2]octan-1-yl)methyl) bicyclo[1.1.1]pentane-1-carboxamide] displayed an EC50 of 0.027 µM.

In turn, `O=C(C1CC(F)(F)C1)N(CC12CCC(c3nc(C4CC4)no3)(CC1)CC2)c1cccc(-c2nc(C(F)F)co2)c1` [Example 41, N-((4-(3-cyclopropyl-1,2,4-oxadiazol-5-yl)bicyclo[2.2.2]octan-1-yl)methyl)-N-(3-(4-(difluoromethyl)oxazol-2-yl)phenyl)-3,3-difluorocyclobutane-1-carboxamide] showed an EC50 of 0.465 µM.

`CC1(c2nc(-c3cccc(N(CC45CCC(c6ccc(C(F)(F)F)cn6)(CC4)CC5)C(=O)C45CC(F)(C4)C5)c3)no2)CC1` [Example 186, 3-fluoro-N-(3-(5-(1-methylcyclopropyl)-1,2,4-oxadiazol-3-yl)phenyl)-N-((4-(5-(trifluoromethyl)pyridin-2-yl)bicyclo[2.2.2]octan-1-yl)methyl)bicyclo[1.1.1]pentane-1-carboxamide] showed a concentration for a half-maximal effect (EC50) of 0.625 µM.

In the case of `Cc1noc(-c2cccc(N(CC34CCC(c5ccc(C6CC6)cc5)(CC3)CC4)C(=O)C3CC3)c2)n1` [Example 2, N-((4-(4-cyclopropylphenyl)bicyclo[2.2.2]octan-1-yl)methyl)-N-(3-(3-methyl-1,2,4-oxadiazol-5-yl)phenyl)cyclopropanecarboxamide], a half-maximal effect (EC50) was put at 3.06 µM.

Turning to `CC1(c2nc(-c3cccc(N(CC45CCC(c6noc(C7(C)COC7)n6)(CC4)CC5)C(=O)C45CC(F)(C4)C5)c3)no2)CC1` [Example 180, 3-fluoro-N-(3-(5-(1-methylcyclopropyl)-1,2,4-oxadiazol-3-yl)phenyl)-N-((4-(5-(3-methyloxetan-3-yl)-1,2,4-oxadiazol-3-yl)bicyclo[2.2.2]octan-1-yl)methyl) bicyclo[1.1.1]pentane-1-carboxamide], the EC50 amounted to 0.083 µM.

Regarding `O=C(N(CC12CCC(c3noc(C4(C(F)(F)F)CC4)n3)(CC1)CC2)c1cccc(-c2nc(C3CC3)no2)c1)C12CC(F)(C1)C2` [Example 118, N-(3-(3-cyclopropyl-1,2,4-oxadiazol-5-yl)phenyl)-3-fluoro-N-((4-(5-(1-(trifluoromethyl)cyclopropyl)-1,2,4-oxadiazol-3-yl)bicyclo[2.2.2]octan-1-yl)methyl) bicyclo[1.1.1]pentane-1-carboxamide], the midpoint of the response, the EC50, lay at 0.03 µM.

`O=C(N(CC12CCC(c3cc(C(F)(F)F)ccn3)(CC1)CC2)c1cccc(-c2nc(C3CC3)no2)c1)C12CC(F)(C1)C2` [Example 50, N-(3-(3-cyclopropyl-1,2,4-oxadiazol-5-yl)phenyl)-3-fluoro-N-((4-(4-(trifluoromethyl)pyridin-2-yl)bicyclo[2.2.2]octan-1-yl)methyl)bicyclo[1.1.1]pentane-1-carboxamide] had a concentration for a half-maximal effect (EC50) of 0.462 µM.

The molecule `O=C(N(CC12CCC(c3nc(C4CC4)no3)(CC1)CC2)c1cccc(-c2cnc(C3CCOCC3)o2)c1)C12CC(F)(C1)C2` [Example 35, N-((4-(3-cyclopropyl-1,2,4-oxadiazol-5-yl)bicyclo[2.2.2]octan-1-yl)methyl)-3-fluoro-N-(3-(2-(tetrahydro-2H-pyran-4-yl)oxazol-5-yl)phenyl)bicyclo[1.1.1]pentane-1-carboxamide] had an EC50 of 0.251 µM.

In turn, `CCOc1ncc(-c2cccc(N(CC34CCC(c5ccc(C(C)(C)C#N)cc5)(CC3)OC4)C(=O)C34CC(F)(C3)C4)c2)o1` [Example 51, N-((1-(4-(2-cyanopropan-2-yl)phenyl)-2-oxabicyclo[2.2.2]octan-4-yl)methyl)-N-(3-(2-ethoxyoxazol-5-yl)phenyl)-3-fluorobicyclo[1.1.1]pentane-1-carboxamide] yielded an EC50 of 0.025 µM. Against the preceding molecule, the EC50 is about 10-fold lower.

With `O=C(C1CCC(F)(F)C1)N(CC12CCC(c3nc(C4CC4)no3)(CC1)CC2)c1cccc(-c2nc(C(F)F)co2)c1` (centres unmarked) [Example 44, N-((4-(3-cyclopropyl-1,2,4-oxadiazol-5-yl)bicyclo[2.2.2]octan-1-yl)methyl)-N-(3-(4-(difluoromethyl)oxazol-2-yl)phenyl)-3,3-difluorocyclopentane-1-carboxamide], it took 0.646 µM to reach a half-maximal effect (EC50).

`CCc1noc(-c2cccc(N(CC34CCC(c5ccc(C(C)(C)C#N)cc5)(CC3)OC4)C(=O)C34CC(F)(C3)C4)c2)n1` [Example 47, N-((1-(4-(2-cyanopropan-2-yl)phenyl)-2-oxabicyclo[2.2.2]octan-4-yl)methyl)-N-(3-(3-ethyl-1,2,4-oxadiazol-5-yl)phenyl)-3-fluorobicyclo[1.1.1]pentane-1-carboxamide] displayed an EC50 of 0.299 µM. Compared with the last molecule, the EC50 is about 2.2-fold lower.

On to `O=C(C1CCC(F)(F)C1)N(CC12CCC(c3nc(C4CC4)no3)(CC1)CC2)c1cccc(-c2nc(CC3CC3)no2)c1` (centres unmarked) [Example 67, N-((4-(3-cyclopropyl-1,2,4-oxadiazol-5-yl)bicyclo[2.2.2]octan-1-yl)methyl)-N-(3-(3-(cyclopropylmethyl)-1,2,4-oxadiazol-5-yl)phenyl)-3,3-difluorocyclopentane-1-carboxamide], for which the EC50 worked out at 0.202 µM. This EC50 and that of the molecule before are within 1.5-fold of each other.

`N#CC1(c2ccc(C34CCC(CN(C(=O)C5CC(F)(F)C5)c5cccc(-c6nc(C7CC7)no6)c5)(CC3)CO4)cc2)CC1` [Example 142, N-((1-(4-(1-cyanocyclopropyl)phenyl)-2-oxabicyclo[2.2.2]octan-4-yl)methyl)-N-(3-(3-cyclopropyl-1,2,4-oxadiazol-5-yl)phenyl)-3,3-difluorocyclobutuane-1-carboxamide] yielded an EC50 of 0.583 µM.

For the molecule `CCn1cc(-c2cccc(N(CC34CCC(c5nc(C6CC6)no5)(CC3)CC4)C(=O)C34CC(F)(C3)C4)c2)oc1=O` [Example 80, N-((4-(3-cyclopropyl-1,2,4-oxadiazol-5-yl)bicyclo[2.2.2]octan-1-yl)methyl)-N-(3-(3-ethyl-2-oxo-2,3-dihydrooxazol-5-yl)phenyl)-3-fluorobicyclo[1.1.1]pentane-1-carboxamide], the EC50 worked out at 0.265 µM. This EC50 lies about 2.2-fold lower than the previous one.

Consider `CCc1noc(-c2cccc(N(CC34CCC(c5nc(C6CC6)no5)(CC3)CC4)C(=O)C3CC(C(F)F)C3)c2)n1` (centres unmarked) [Example 4, N-((4-(3-cyclopropyl-1,2,4-oxadiazol-5-yl)bicyclo[2.2.2]octan-1-yl)methyl)-3-(difluoromethyl)-N-(3-(3-ethyl-1,2,4-oxadiazol-5-yl)phenyl)cyclobutane-1-carboxamide], for which the EC50 amounted to 0.322 µM.

As for `Cc1noc(C23CCC(CN(C(=O)C45CC(F)(C4)C5)c4cccc(-c5cnc(C6CCOCC6)o5)c4)(CC2)CC3)n1` [Example 34, 3-Fluoro-N-((4-(3-methyl-1,2,4-oxadiazol-5-yl)bicyclo[2.2.2]octan-1-yl)methyl)-N-(3-(2-(tetrahydro-2H-pyran-4-yl)oxazol-5-yl)phenyl)bicyclo[1.1.1]pentane-1-carboxamide], a half-maximal effect (EC50) was put at 1.52 µM. This EC50 is about 4.7-fold higher than that of the molecule before.

The next assay addresses T1, FXR. Put plainly: transient human FXR/Gal4-luciferase reporter assay. It counts as cell-based.
Details: not given
Put shortly: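 Compound exposure ran overnight at 37 °C and activity was measured as luminescence with Steady-Glo reagent. The cells were a HEK293 line stably expressing firefly luciferase under five Gal4 response elements. They were transiently transfected, one night beforehand, with a plasmid encoding Gal4 DNA-binding domain fused to the human FXR ligand-binding domain.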
As to `CC(F)(F)c1nc(C23CCC(CN(C(=O)C45CC(F)(C4)C5)c4cccc(-c5ccc(OC(F)F)cc5)c4)(CC2)CC3)no1` [Example 528, N-((4-(5-(1,1-difluoroethyl)-1,2,4-oxadiazol-3-yl)bicyclo[2.2.2]octan-1-yl)methyl)-N-(4′-(difluoromethoxy)-[1,1′-biphenyl]-3-yl)-3-fluorobicyclo[1.1.1]pentane-1-carboxamide], a half-maximal effect (EC50) was put at 0.073 µM.

Turning to `CCOc1ncc(-c2cccc(N(CC34CCC(c5noc(C(C)(F)F)n5)(CC3)CC4)C(=O)C34CC(F)(C3)C4)c2)cn1` [Example 529, N-((4-(5-(1,1-difluoroethyl)-1,2,4-oxadiazol-3-yl)bicyclo[2.2.2]octan-1-yl)methyl)-N-(3-(2-ethoxypyrimidin-5-yl)phenyl)-3-fluorobicyclo[1.1.1]pentane-1-carboxamide], the EC50 was found to be 0.106 µM.

The same assay, now with this note: Gal4-hFXR fusion construct, HEK293 reporter cells; response relative to 8 μM GW-4064.
For `Cc1nc2ccc(-c3cccc(N(CC45CCC(c6nc(C(C)(C)C)no6)(CC4)CC5)C(=O)C45CC(F)(C4)C5)c3)cc2s1` [Example 362, N-((4-(3-(tert-butyl)-1,2,4-oxadiazol-5-yl)bicyclo[2.2.2]octan-1-yl)methyl)-3-fluoro-N-(3-(2-methylbenzo[d]thiazol-6-yl)phenyl)bicyclo[1.1.1]pentane-1-carboxamide], the EC50 was found to be 0.204 µM. This lies in the sub-micromolar range.

Molecule `CC(C)Oc1ccc(-c2cccc(N(CC34CCC(c5cc(C(C)(F)F)on5)(CC3)CC4)C(=O)OC(C)(C)C(F)(F)F)c2)cc1` [Example 656, 1,1,1-trifluoro-2-methylpropan-2-yl ((4-(5-(1,1-difluoroethyl)isoxazol-3-yl)bicyclo[2.2.2]octan-1-yl)methyl)(4′-isopropoxy-[1,1′-biphenyl]-3-yl)carbamate] registered a concentration giving a half-maximal response (EC50) of 1.06 µM.

The values are drawn from patent US11254663B2 (BRISTOL-MYERS SQUIBB COMPANY, priority 2019, dated 2022).
